Results from patent publication US20080176866A1, “NOVEL HETARYL-PHENYLENEDIAMINE-PYRIMIDINES AS PROTEIN KINASE INHIBITORS” (priority 2006, published 2008).
pIC50: −log10 of the molar value.

How the values were obtained:
human Aurora-C = target: T1, human Aurora-C (Homo sapiens, UniProt Q9UQB9); test: Aurora-C kinase assay (HTRF); type: biochemical; settings: GST-human Aurora-C, 10 μM ATP
T1 construct: GST; made in house; host or cells: transiently transfected HEK293 cells
T1 sequence (Q9UQB9 1-309): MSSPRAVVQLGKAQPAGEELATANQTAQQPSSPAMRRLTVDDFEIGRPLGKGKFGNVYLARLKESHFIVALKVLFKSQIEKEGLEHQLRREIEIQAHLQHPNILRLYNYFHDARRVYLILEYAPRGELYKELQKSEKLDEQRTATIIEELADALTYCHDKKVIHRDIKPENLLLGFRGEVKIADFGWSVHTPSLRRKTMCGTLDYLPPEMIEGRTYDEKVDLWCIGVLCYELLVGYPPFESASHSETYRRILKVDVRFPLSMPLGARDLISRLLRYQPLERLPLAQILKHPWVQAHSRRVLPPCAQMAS
Protocol: The Aurora-C inhibitory activity of the substances of this invention was measured in the Aurora-C-HTRF assay (HTRF=Homogeneous Time Resolved Fluorescence) described in the following paragraphs.
Recombinant fusion protein of GST and human Aurora-C was expressed in transiently transfected HEK293 cells and purified by affinity chromatography on glutathione-Sepharose. The substrate used for the kinase reaction was the biotinylated peptide biotin-Ttds-FMRLRRLSTKYRT (C terminus in amide form) which can be purchased for example from JERINI Peptide Technologies (Berlin). Aurora-C was incubated in the presence of various concentrations of test substances in 5 μL of assay buffer [25 mM Hepes/NaOH pH 7.4, 0.5 mM MnCl2, 2.0 mM dithiothreitol, 0.1 mM sodium orthovanadate, 10 μM adenosine triphosphate (ATP), […] substrate, 0.01% (v/v) TritonX-100 (Sigma), 0.05% (w/v) bovine serum albumin (BSA), 1% (v/v) dimethyl sulphoxide] at 22° C. for 60 min. The concentration of Aurora-C was adapted to the particular activity of the enzyme and adjusted so that the assay operated in the linear range. Typical concentrations were in the region of 0.3 nM. The reaction was stopped by adding 5 μl of a solution of HTRF detection reagents (0.2 μM streptavidin-XLent and 1.4 nM anti-phospho-(Ser/Thr)-Akt substrate-Eu-cryptate (C is biointernational, France, product No. 61P02KAE), a Europium-cryptate-labelled phospho-(Ser/Thr)-Akt substrate antibody [product #9611B, Cell Signaling Technology, Danvers, Mass., USA]) in aqueous EDTA solution (40 mM EDTA, 400 mM KF, 0.05% (w/v) bovine serum albumin (BSA) in 25 mM HEPES/NaOH pH 7.0).
The resulting mixture was incubated at 22° C. for 1 h in order to allow formation of a complex of the biotinylated phosphorylated substrate and the detection reagents. The amount of phosphorylated substrate was then estimated by measuring the resonance energy transfer from the anti-phospho-(Ser/Thr)-Akt substrate-Eu cryptate to the streptavidin-XLent. For this purpose, the fluorescence emissions at 620 nm and 665 nm after excitation at 350 nm were measured in an HTRF measuring instrument, e.g. a Rubystar (BMG Labtechnologies, Offenburg, Germany) or a Viewlux (Perkin-Elmer). The ratio of the emissions at 665 nm and at 622 nm was taken as a measure of the amount of phosphorylated substrate. The data were normalized (enzymic reaction without inhibitor=0% inhibition, all other assay components but no enzyme=100% inhibition) and IC50 values were calculated with a 4-parameter fit using an inhouse software.

[1] = system: human MCF7 breast tumour cells; test: MCF7 proliferation assay; type: cell-based; settings: 96 h, 4 days incubation, crystal violet staining
Protocol: Cultivated human MCF7 breast tumour cells (ATCC HTB-22) were plated out in a density of 5000 cells/measurement point in 200 μl of growth medium (RPMI1640, 10% foetal calf serum, 2 mU/mL insulin, 0.1 nM oestradiol) in a 96-well multititre plate. After 24 hours, the cells from a plate (zero plate) were stained with crystal violet (see below), while the medium in the other plates was replaced by fresh culture medium (200 μl) to which the test substances had been added in various concentrations (0 μM, and in the range 0.01-30 μM; the final concentration of the solvent dimethyl sulphoxide was 0.5%). The cells were incubated in the presence of the test substances for 4 days. The cell proliferation was determined by staining the cells with crystal violet: the cells were fixed by adding 20 μl/measurement point of an 11% strength glutaraldehyde solution at room temperature for 15 min. After the fixed cells had been washed three times with water, the plates were dried at room temperature. The cells were stained by adding 100 μl/measurement point of a 0.1% strength crystal violet solution (pH adjusted to pH 3 by adding acetic acid). After the stained cells had been washed three times with water, the plates were dried at room temperature. The dye was dissolved by adding 100 μl/measurement point of a 10% strength acetic acid solution, and the extinction was determined by photometry at a wavelength of 595 nm. The percentage change in cell growth was calculated by normalizing the measurements to the extinctions of the zero point plate (=0%) and the extinction of the untreated (0 μM) cells (=100%). The IC50 values were determined by means of a 4-parameter fit using the company's own software.

SMILES	pIC50 (human Aurora-C)	pIC50 [1]
C[C@@H](O)[C@@H](C)Oc1nc(Nc2ccc(Nc3nccc(OCCO)n3)cc2)ncc1Br [Example 8, (2R,3R)-3-(5-Bromo-2-{4-[4-(2-hydroxyethoxy)pyrimidin-2-ylamino]-phenylamino}pyrimidin-4-yloxy)butan-2-ol]	6.70	7.52
C[C@@H](O)[C@@H](C)Oc1nc(Nc2ccc(Nc3ncccn3)cc2)ncc1Br [Example 15]	6.85	7.05
C[C@@H](O)[C@@H](C)Oc1nc(Nc2ccc(Nc3nccc(N)n3)cc2)ncc1Br [Example 16]	7.38	6.38
C[C@@H](O)[C@@H](C)Oc1nc(Nc2ccc(Nc3nccc(N(C)C)n3)cc2)ncc1Br [Example 17]	7.00	7.01
C[C@@H](O)[C@@H](C)Oc1nc(Nc2ccc(Nc3nccc(NCCN(C)C)n3)cc2)ncc1Br [Example 18]	7.12	6.77
Cc1cnc(Nc2ccc(Nc3ncc(Br)c(O[C@H](C)[C@@H](C)O)n3)cc2)nc1NCCO [Example 19]	7.04	6.54
C[C@@H](O)[C@@H](C)Oc1nc(Nc2ccc(Nc3ncc(Cl)c(NCCO)n3)cc2)ncc1Br [Example 21]	6.74	7.04
COc1ccnc(Nc2ccc(Nc3ncc(Br)c(O[C@H](C)[C@@H](C)O)n3)cc2)n1 [Example 22]	6.57	6.89
C[C@@H](O)[C@@H](C)Oc1nc(Nc2ccc(Nc3ncc(Br)cn3)cc2)ncc1Br [Example 24]	6.89	7.00
C[C@@H](O)[C@@H](C)Oc1nc(Nc2cccc(Nc3ncccn3)c2)ncc1Br [Example 25]	6.47	6.57
C[C@@H](O)[C@@H](C)Oc1nc(Nc2cccc(Nc3nccc(OCCO)n3)c2)ncc1Br [Example 27]	6.36	7.48
CSc1nc(Nc2ccc(Nc3ccccn3)cc2)ncc1Br [Example 29]	5.09	< 5.52
CC(=O)NCCNc1nc(Nc2cccc(Nc3ncc(Br)c(NCCNC(C)=O)n3)c2)ncc1Br [Example 30]	7.28	5.70
C[C@@H](O)[C@@H](C)Nc1nc(Nc2ccc(Oc3cccnc3)cc2)ncc1Br [Example 33]	6.42	6.57
C[C@@H](O)[C@@H](C)Nc1nc(Nc2ccc(Oc3ncccn3)cc2)ncc1Br [Example 34]	6.31	
C[C@@H](O)[C@@H](C)Nc1nc(Nc2ccc(Sc3nncn3C)cc2)ncc1Br [Example 39]	6.46	
C[C@@H](O)[C@@H](C)Sc1nc(Nc2ccc(Nc3ncc(Cl)c(NCCO)n3)cc2)ncc1Br [Example 44]	6.00	< 5.52
